Measurements: patent publication US12227490B2, “Cereblon binding compounds, compositions thereof, and methods of treatment therewith” (Celgene Corporation, priority 2020, dated 2025)
Where a name gives a salt, the structure may show the parent alone.

Molecular target: T1, AR (androgen receptor) protein in VCaP cells (Homo sapiens, UniProt P10275)
T1 construct: endogenous in cells; host or cells: VCaP cells
T1 sequence (P10275 1-920): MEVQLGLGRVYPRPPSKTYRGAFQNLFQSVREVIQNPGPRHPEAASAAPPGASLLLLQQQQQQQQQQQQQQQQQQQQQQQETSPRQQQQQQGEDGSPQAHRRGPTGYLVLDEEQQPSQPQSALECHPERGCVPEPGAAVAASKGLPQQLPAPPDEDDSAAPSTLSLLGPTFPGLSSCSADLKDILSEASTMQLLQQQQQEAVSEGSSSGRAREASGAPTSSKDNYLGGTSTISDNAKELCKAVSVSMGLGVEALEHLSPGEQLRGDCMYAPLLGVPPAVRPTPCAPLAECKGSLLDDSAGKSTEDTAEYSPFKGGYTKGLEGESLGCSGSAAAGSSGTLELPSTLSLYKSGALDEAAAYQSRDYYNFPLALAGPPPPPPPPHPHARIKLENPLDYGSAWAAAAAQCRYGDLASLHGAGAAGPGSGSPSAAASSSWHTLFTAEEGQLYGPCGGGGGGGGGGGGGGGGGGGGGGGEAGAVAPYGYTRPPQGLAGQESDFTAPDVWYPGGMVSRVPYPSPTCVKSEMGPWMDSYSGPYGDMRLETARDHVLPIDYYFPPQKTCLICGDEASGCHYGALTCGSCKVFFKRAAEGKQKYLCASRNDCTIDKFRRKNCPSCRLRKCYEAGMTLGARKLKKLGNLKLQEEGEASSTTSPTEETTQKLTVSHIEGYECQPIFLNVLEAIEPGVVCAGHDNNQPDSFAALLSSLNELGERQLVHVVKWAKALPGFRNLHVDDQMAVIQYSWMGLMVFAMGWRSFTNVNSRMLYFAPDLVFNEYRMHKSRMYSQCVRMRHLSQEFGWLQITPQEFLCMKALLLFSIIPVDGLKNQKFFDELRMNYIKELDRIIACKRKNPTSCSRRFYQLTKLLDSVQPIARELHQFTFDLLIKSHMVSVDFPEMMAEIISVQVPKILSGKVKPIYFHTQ
Assay: VCAP AR Degradation Assay
Assay type: cell-based
Conditions: 24 h, AR ELISA; for DC50: concentration of compound when AR level = 50% of DMSO control; for remaining activity at up to 5 µM: top concentration 5 μM, read-out: Y (lowest measured AR level normalized to DMSO control, AR degradation efficiency)
Description: VCAP AR Degradation Assay. Test compounds were pre-dispensed into a Corning CellBind 96-well clear bottom plate (Cat #3300) using an acoustic dispenser to make a 10-point concentration series at 1:3 dilution for each compound. The final top concentration of each compound was 5 μM. DMSO at a final concentration of 0.1% was used as a control. VCaP cells cultured in DMEM with 8% fetal bovine serum (FBS) were seeded at 50K cells per well in a 200 μL volume into the compound plate and incubated at 37° C. in a CO2 incubator for 24 h. The medium was carefully removed from the cells and the plate was placed on ice. One hundred μL of ice-cold 1× cell lysis buffer from Cell Signaling Technologies (Cat #9803) was added to each well of the cells and the plate was incubated at 4° C. on a shaker for 1 h. Fifteen μL of cell lysate was used for AR ELISA detection using a PathScan Total Sandwich AR ELISA kit (Cell Signaling Technology, Cat #12580). AR levels in compound-treated wells were normalized to that of DMSO control and expressed as percent of control (PoC) (y). A Four Parameter Logistic Model (Sigmoidal Dose-Response Model) was used to determine the compound's DC50, and EC50, using the following equation: y=(A+((B−A)/(1+((C/x)^D)))) • A=YMin (lowest AR level normalized to DMSO control in response to compound treatment, as determined by curve fit) • B=YMax (maximum AR level as determined by curve fit) • C=EC50 • D=Hill Slope • x=compound concentration • EC50=the concentration of compound when y=(YMax−YMin)/2 • DC50=the concentration of the compound when y=50% of DMSO control (50% AR degradation) • y=AR protein level normalized to DMSO control
The lowest measured AR level normalized to DMSO control in response to compound treatment, termed Y value, was used to characterize the compound-mediated AR degradation efficiency.

| Compound | DC50 | remaining activity at up to 5 µM |
| --- | --- | --- |
| C[C@@H]1CN(CCO[C@H]2CC[C@H](N3C(=S)N(c4cnc(C#N)c(C(F)(F)F)c4)C(=O)C3(C)C)CC2)C[C@H](C)N1CC(=O)Nc1cccc2c(C3CCC(=O)NC3=O)nn(C)c12 (stereo partly drawn) [Cmpd 4, 2-((2R,6S)-4-(2-((trans-4-(3-(6-Cyano-5-(trifluoromethyl)pyridin-3-yl)-5,5-dimethyl-4-oxo-2-thioxoimidazolidin-1-yl)cyclohexyl)oxy)ethyl)-2,6-dimethylpiperazin-1-yl)-N-(3-(2,6-dioxopiperidin-3-yl)-1-methyl-1H-indazol-7-yl)acetamide hydrochloride] | < 2 nM | 25 to 30% |
| C[C@@H]1C[C@@H](CCO[C@H]2CC[C@H](N3C(=S)N(c4ccc(C#N)c(C(F)(F)F)c4)C(=O)C3(C)C)CC2)C[C@H](C)N1CC(=O)Nc1cccc2c(C3CCC(=O)NC3=O)nn(C)c12 (stereo partly drawn) [Cmpd 12, 2-((2R,4s,6S)-4-(2-((trans-4-(3-(4-Cyano-3-(trifluoromethyl)phenyl)-5,5-dimethyl-4-oxo-2-thioxoimidazolidin-1-yl)cyclohexyl)oxy)ethyl)-2,6-dimethylpiperidin-1-yl)-N-(3-(2,6-dioxopiperidin-3-yl)-1-methyl-1H-indazol-7-yl)acetamide hydrochloride] | 2 to 5 nM | 0 to 25% |
| Cn1nc(C2CCC(=O)NC2=O)c2cccc(NC(=O)CN3CCN(CCO[C@H]4CC[C@H](N5C(=S)N(c6ccc(C#N)c(C(F)(F)F)c6)C(=O)C5(C)C)CC4)C[C@@H]3C(F)(F)F)c21 (stereo partly drawn) [Cmpd 14, 2-((R)-4-(2-((trans-4-(3-(4-Cyano-3-(trifluoromethyl)phenyl)-5,5-dimethyl-4-oxo-2-thioxoimidazolidin-1-yl)cyclohexyl)oxy)ethyl)-2-(trifluoromethyl)piperazin-1-yl)-N-(3-(2,6-dioxopiperidin-3-yl)-1-methyl-1H-indazol-7-yl)acetamide hydrochloride] | < 2 nM | 0 to 25% |
| C[C@@H]1CN(CCCC[C@H]2CC[C@H](N3C(=S)N(c4ccc(C#N)c(C(F)(F)F)c4)C(=O)C3(C)C)CC2)C[C@H](C)N1CC(=O)Nc1cccc2c(C3CCC(=O)NC3=O)nn(C)c12 (stereo partly drawn) [Cmpd 19, 2-((2S,6R)-4-(4-((trans)-4-(3-(4-Cyano-3-(trifluoromethyl)phenyl)-5,5-dimethyl-4-oxo-2-thioxoimidazolidin-1-yl)cyclohexyl)butyl)-2,6-dimethylpiperazin-1-yl)-N-(3-(2,6-dioxopiperidin-3-yl)-1-methyl-1H-indazol-7-yl)acetamide] | 2 to 5 nM | 0 to 25% |
| C[C@@H]1CN(CCCO[C@H]2CC[C@H](N3C(=S)N(c4ccc(C#N)c(C(F)(F)F)c4)C(=O)C3(C)C)CC2)C[C@H](C)N1CC(=O)Nc1cccc2c(C3CCC(=O)NC3=O)nn(C)c12 (stereo partly drawn) [Cmpd 8, 2-((2R,6S)-4-(3-((trans-4-(3-(4-Cyano-3-(trifluoromethyl)phenyl)-5,5-dimethyl-4-oxo-2-thioxoimidazolidin-1-yl)cyclohexyl)oxy)propyl)-2,6-dimethylpiperazin-1-yl)-N-(3-(2,6-dioxopiperidin-3-yl)-1-methyl-1H-indazol-7-yl)acetamide] | < 2 nM | 25 to 30% |
| C[C@@H]1C[C@H](CCO[C@H]2CC[C@H](N3C(=S)N(c4ccc(C#N)c(C(F)(F)F)c4)C(=O)C3(C)C)CC2)C[C@H](C)N1CC(=O)Nc1cccc2c(C3CCC(=O)NC3=O)nn(C)c12 (stereo partly drawn) [Cmpd 13, 2-((2R,4r,6S)-4-(2-((trans-4-(3-(4-Cyano-3-(trifluoromethyl)phenyl)-5,5-dimethyl-4-oxo-2-thioxoimidazolidin-1-yl)cyclohexyl)oxy)ethyl)-2,6-dimethylpiperidin-1-yl)-N-(3-(2,6-dioxopiperidin-3-yl)-1-methyl-1H-indazol-7-yl)acetamide hydrochloride] | 2 to 5 nM | 0 to 25% |

Other lines, results leading:

| DC50 | remaining activity at up to 5 µM | Compound |
| --- | --- | --- |
| 2 to 5 nM | 30 to 50% | C[C@@H]1CN(CCC[C@H]2CC[C@H](N3C(=S)N(c4cnc(C#N)c(Cl)c4)C(=O)C3(C)C)CC2)C[C@H](C)N1CC(=O)Nc1cccc2c(C3CCC(=O)NC3=O)nn(C)c12 (stereo partly drawn) [Cmpd 10, 2-((2R,6S)-4-(3-(trans-4-(3-(5-Chloro-6-cyanopyridin-3-yl)-5,5-dimethyl-4-oxo-2-thioxoimidazolidin-1-yl)cyclohexyl)propyl)-2,6-dimethylpiperazin-1-yl)-N-(3-(2,6-dioxopiperidin-3-yl)-1-methyl-1H-indazol-7-yl)acetamide] |
| 2 to 5 nM | 0 to 25% | Cn1nc(C2CCC(=O)NC2=O)c2cccc(NC(=O)CN3CCN(CCCO[C@H]4CC[C@H](N5C(=S)N(c6cnc(C#N)c(C(F)(F)F)c6)C(=O)C5(C)C)CC4)C[C@@H]3C(F)(F)F)c21 (stereo partly drawn) [Cmpd 20, 2-((R)-4-(3-(((trans)-4-(3-(6-Cyano-5-(trifluoromethyl)pyridin-3-yl)-5,5-dimethyl-4-oxo-2-thioxoimidazolidin-1-yl)cyclohexyl)oxy)propyl)-2-(trifluoromethyl)piperazin-1-yl)-N-(3-(2,6-dioxopiperidin-3-yl)-1-methyl-1H-indazol-7-yl)acetamide] |
| < 2 nM | 0 to 25% | C[C@@H]1C[C@H](OCCO[C@H]2CC[C@H](N3C(=S)N(c4cnc(C#N)c(C(F)(F)F)c4)C(=O)C3(C)C)CC2)C[C@H](C)N1CC(=O)Nc1cccc2c(C3CCC(=O)NC3=O)nn(C)c12 (stereo partly drawn) [Cmpd 28, 2-((2R,4r,6S)-4-(2-(((trans)-4-(3-(6-Cyano-5-(trifluoromethyl)pyridin-3-yl)-5,5-dimethyl-4-oxo-2-thioxoimidazolidin-1-yl)cyclohexyl)oxy)ethoxy)-2,6-dimethylpiperidin-1-yl)-N-(3-(2,6-dioxopiperidin-3-yl)-1-methyl-1H-indazol-7-yl)acetamide] |
| 5 to 20 nM | 0 to 25% | C[C@@H]1C[C@H](OCCC[C@H]2CC[C@H](N3C(=S)N(c4cnc(C#N)c(C(F)(F)F)c4)C(=O)C3(C)C)CC2)C[C@H](C)N1CC(=O)Nc1cccc2c(C3CCC(=O)NC3=O)nn(C)c12 (stereo partly drawn) [Cmpd 24, 2-((2R,4r,6S)-4-(3-((trans)-4-(3-(6-Cyano-5-(trifluoromethyl)pyridin-3-yl)-5,5-dimethyl-4-oxo-2-thioxoimidazolidin-1-yl)cyclohexyl)propoxy)-2,6-dimethylpiperidin-1-yl)-N-(3-(2,6-dioxopiperidin-3-yl)-1-methyl-1H-indazol-7-yl)acetamide] |
| < 2 nM | 0 to 25% | Cn1nc(C2CCC(=O)NC2=O)c2cccc(NC(=O)CN3CCN(CCO[C@H]4CC[C@H](N5C(=S)N(c6cnc(C#N)c(C(F)(F)F)c6)C(=O)C5(C)C)CC4)C[C@@H]3C(F)(F)F)c21 (stereo partly drawn) [Cmpd 22, 2-((R)-4-(2-(((trans)-4-(3-(6-Cyano-5-(trifluoromethyl)pyridin-3-yl)-5,5-dimethyl-4-oxo-2-thioxoimidazolidin-1-yl)cyclohexyl)oxy)ethyl)-2-(trifluoromethyl)piperazin-1-yl)-N-(3-(2,6-dioxopiperidin-3-yl)-1-methyl-1H-indazol-7-yl)acetamide] |
